Values after ≈ are worked out from the molar mass of the structure shown.
Experiments:
[1] = phosphate buffer pH 7.4 with 10 % (v/v) ethanol; cited from earlier work
[2] = Solubility of DEX in vegetable oils with cosolvents (shaker, HPLC); type: physicochemical; conditions: oil or lipid, thermodynamic from solid, 24 hours incubation
Procedure: After centrifugation, 200 μL of supernatant was diluted with 600 μL of tetrahydrofuran and 800 μL of acetonitrile in vials for the HPLC analysis. All samples were prepared in triplicates. Castor oil combined with 20 % (v/v) of isopropanol and castor oil with 20 % (v/v) of Capryol® 90 were chosen as the best formulations for the following experiments.
Samples from the solubility and partitioning studies were analysed on HPLC system Agilent 1100/1200 series connected to diode array detector adjusted to 241 nm. Kinetex C18 column (4.6 x 50 mm, particles 2.6 μm and pore size 100 Å) by Phenomenex (USA), heated to 40 °C, was used. The chromatograms were obtained with a gradient elution, where acetonitrile and buffer pH 2.0 were components of the mobile phase. Injector temperature was adjusted at 35 °C, the flow rate at 1.8 ml/min and sample injection volume at 10 μL. […] The two working standard solutions were obtained by further diluting the stock solution. […] The second standard solution was prepared by diluting 1 mL of stock solution in 100 mL acetonitrile. It was used for DEX assay in solutions composed of four other oils.

[3] = cited from earlier work

C[C@@H]1C[C@H]2[C@@H]3CCC4=CC(=O)C=C[C@]4(C)[C@@]3(F)[C@@H](O)C[C@]2(C)[C@@]1(O)C(=O)CO [DEX, Dexamethasone]
solubility of DEX [1]: 170 µg/mL
solubility at 24 h ([2]; castor oil with 20 % (v/v) Capryol 90, 37 °C): ~1200 µg/mL (≈ 3.06 mM)
solubility at 24 h ([2]; castor oil with 20 % (v/v) isopropanol, 37 °C): ~2300 µg/mL (≈ 5.86 mM)
solubility in ethanol [3]: sparingly soluble
solubility in water [3]: practically insoluble
